# Measurements from US9624228B2, “Inhibitors of ERK and methods of use” (KURA ONCOLOGY, INC., priority 2013, dated 2017).
# Biological target: ERK2 enzyme (Homo sapiens (Human), UniProt P28482)
# Experiment: Inhibition assay of ERK (Z'-LYTE kinase assay, Ser/Thr 3 peptide substrate)
# Format: biochemical
# Conditions: In vitro ERK2 enzyme, 100 μM ATP
# Chain of ERK2 enzyme (P28482 whole entry): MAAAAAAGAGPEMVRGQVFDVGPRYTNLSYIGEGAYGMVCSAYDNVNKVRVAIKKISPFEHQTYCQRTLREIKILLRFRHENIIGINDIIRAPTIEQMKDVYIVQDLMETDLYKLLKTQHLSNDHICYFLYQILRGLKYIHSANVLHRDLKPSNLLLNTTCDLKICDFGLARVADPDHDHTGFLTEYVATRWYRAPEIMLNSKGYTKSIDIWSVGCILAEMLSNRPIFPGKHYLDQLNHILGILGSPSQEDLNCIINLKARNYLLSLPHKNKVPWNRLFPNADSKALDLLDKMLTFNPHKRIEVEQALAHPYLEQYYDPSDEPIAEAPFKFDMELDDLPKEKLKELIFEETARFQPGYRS
row,IC50,Structure (SMILES)
1,< 50 nM,O=C1Nc2cc3[nH]nc(-c4ccnnc4)c3cc2CN1Cc1cccc(Cl)c1 [Compound 66]
2,< 50 nM,Cc1cc(-c2n[nH]c3cc4c(cc23)CN([C@@H]2CCCN(C(=O)c3cccc(Cl)c3)C2)C(=O)N4)ccn1 [Compound 152]
3,< 50 nM,Cc1cc(-c2n[nH]c3cc4[nH]c(=O)c(C(C)c5ccc(F)cc5)cc4cc23)ccn1 (stereo not drawn) [Compound 197]

row,Structure (SMILES),IC50
1,Cc1cc(-c2n[nH]c3cc4[nH]c(=O)c(Cc5ccccc5)cc4cc23)ccn1 [Compound 6],50 to 250 nM
2,Cc1cc(-c2n[nH]c3cc4[nH]c(=O)c(C(C)c5cccc(Cl)c5)cc4cc23)ccn1 (stereo not drawn) [Compound 181],50 to 250 nM

# Same assay, conditions: In vitro, ERK2 enzyme 0.47 ng/μL, 100 μM ATP
row,Structure (SMILES),IC50
1,Cc1cc(-c2n[nH]c3cc4[nH]c(=O)c([C@H](C)c5ccc(F)cc5)cc4cc23)ccn1 [Compound 288],< 50 nM
2,Nc1ncc(-c2n[nH]c3cc4c(cc23)CN([C@@H]2CN(CC(F)(F)F)C[C@H]2c2ccccc2)C(=O)N4)cn1 [Compound 351],< 50 nM
3,Cn1cc(-c2n[nH]c3cc4c(cc23)CN([C@@H]2CN(CC(F)(F)F)C[C@H]2c2ccccc2)C(=O)N4)cn1 [Compound 352],< 50 nM
4,C[C@H](c1ccccc1)c1cc2cc3c(NC4CCOCC4)n[nH]c3cc2[nH]c1=O [Compound 357],< 50 nM

# Now from value to compound:
row,IC50,Structure (SMILES)
1,50 to 250 nM,CC(c1ccccc1)c1cc2cc3c(N4CCN(C)CC4)n[nH]c3cc2[nH]c1=O (stereo not drawn) [Compound 358]
2,50 to 250 nM,Cc1cc(-c2n[nH]c3cc4[nH]c(=O)c(C5CCCN(Cc6ccccc6)C5)cc4cc23)cc(C)n1 (stereo not drawn) [Compound 360]
3,50 to 250 nM,O=C1Nc2cc3[nH]nc(NC4CCOCC4)c3cc2CN1[C@@H]1CN(CC(F)(F)F)C[C@H]1c1ccccc1 [Compound 361]
4,< 50 nM,Cc1cc(-c2n[nH]c3cc4c(cc23)CN([C@H]2CCCN(Cc3ccccc3)C2)C(=O)N4)cc(C)n1 [Compound 363]
5,< 50 nM,COc1ncc(-c2n[nH]c3cc4[nH]c(=O)c(C5CCCN(Cc6ccccc6)C5)cc4cc23)cn1 (stereo not drawn) [Compound 364]
6,50 to 250 nM,COc1ncc(-c2n[nH]c3cc4c(cc23)CN([C@H]2CCCN(Cc3ccccc3)C2)C(=O)N4)cn1 [Compound 365]
7,50 to 250 nM,COc1ccc(-c2n[nH]c3cc4[nH]c(=O)c(C5CCCN(Cc6ccccc6)C5)cc4cc23)cn1 (stereo not drawn) [Compound 367]
8,50 to 250 nM,COc1ccc(-c2n[nH]c3cc4c(cc23)CN([C@H]2CCCN(Cc3ccccc3)C2)C(=O)N4)cn1 [Compound 368]
9,250 to 1000 nM,COc1ccc(-c2n[nH]c3cc4c(cc23)CN([C@H]2CCCN(Cc3ccc(F)cc3F)C2)C(=O)N4)cn1 [Compound 369]
10,< 50 nM,COc1cc(-c2n[nH]c3cc4[nH]c(=O)c(C5CCCN(Cc6ccccc6)C5)cc4cc23)ccn1 (stereo not drawn) [Compound 370]
11,50 to 250 nM,Cc1cc(-c2n[nH]c3cc4c(cc23)CC([C@H](C)c2ccccc2)C(=O)N4)ccn1 (stereo partly drawn) [Compound 371]
12,< 50 nM,Cc1cc(-c2n[nH]c3cc4c(cc23)CN(Cc2ccccc2)C(=O)N4)ccn1 [Compound 372]
13,50 to 250 nM,Cc1ccc(-c2n[nH]c3cc4[nH]c(=O)c(C5CCCN(Cc6ccccc6)C5)cc4cc23)cn1 (stereo not drawn) [Compound 373]
14,< 50 nM,COc1ccc(-c2n[nH]c3cc4c(cc23)CN([C@@H]2CN(CC(F)(F)F)C[C@H]2c2ccccc2)C(=O)N4)cn1 [Compound 374]
15,50 to 250 nM,COc1cc(-c2n[nH]c3cc4c(cc23)CN([C@@H]2CN(CC(F)(F)F)C[C@H]2c2ccccc2)C(=O)N4)ccn1 [Compound 375]
16,< 50 nM,Cc1cc(-c2n[nH]c3cc4c(cc23)CN([C@H](C)c2ccccc2)C(=O)N4)cc(C)n1 [Compound 377]
17,50 to 250 nM,Cc1cc(-c2n[nH]c3cc4[nH]c(=O)c(C5CCCN(Cc6cccs6)C5)cc4cc23)ccn1 (stereo not drawn) [Compound 378]

# Test system: phospho-RSK1 (Thr359/Ser363) in A375 (Braf V600E) cells
# Experiment: Phospho-p90 RSK ELISA using A375 (Braf V600E) cells
# Format: cell-based
# Conditions: Homo sapiens, A-375, 2 hours compound treatment, read-out: Cellular Phospho-p90RSK IC50
# Description: In preparation for the assay, an ELISA plate with the pre-coated goat anti-mouse antibody (Thermo Scientific) was treated with a mouse anti-human RSK1 antibody (monoclonal, Invitrogen) at 1:800 dilution (150 ng/well) in PBS, and the plate was placed on a plate shaker at 4° C. overnight. […] After two hours of the compound treatment, the supernatant was removed from the cell plate, and cells were lysed in 100 μl per well of cell lysis buffer (Cell Signaling Technologies) containing phosphatase and protease inhibitors (Cell Signaling Technologies) on a plate shaker at 4° C. for 20 minutes. The ELISA plate was washed four times with ELISA wash buffer (Thermo Scientific) prior to addition of 100 μL cell lysate. The lysate was incubated on the ELISA plate with gentle shaking at room temperature for 2 hours. The contents of the wells were removed, and the ELISA plate was washed four times with wash buffer, and incubated with 100 μL per well of anti-phospho-RSK1 (Thr359/Ser363) rabbit monoclonal antibody (Millipore) at dilution of 1:1000 in StartingBlock buffer (Thermo Scientific) on a plate shaker at room temperature for 1 hour. The contents of the wells were removed, the ELISA plate was washed four times with wash buffer, and was incubated with 100 μL per well of goat anti-rabbit HRP (Thermo Scientific) at dilution of 1:3000 in StartingBlock buffer (Thermo Scientific) on a plate shaker at room temperature for 1 hour. The contents of the wells were removed, the ELISA plate was washed four times with wash buffer, and then incubated with 100 μL per well of TMB substrate solution (Thermo Scientific) on a plate shaker at room temperature for 20 minutes. Finally, 100 μL of TMB stop solution (Thermo Scientific) was added to each well and the absorbance is measured at 450 nm on a Tecan plate reader.
row,Structure (SMILES),IC50
1,O=C1Nc2cc3[nH]nc(-c4ccnnc4)c3cc2CN1Cc1cccc(Cl)c1 [Compound 66],250 to 1000 nM
2,Cc1cc(-c2n[nH]c3cc4c(cc23)CN([C@@H]2CCCN(C(=O)c3cccc(Cl)c3)C2)C(=O)N4)ccn1 [Compound 152],250 to 1000 nM
3,Cc1cc(-c2n[nH]c3cc4[nH]c(=O)c(C(C)c5cccc(Cl)c5)cc4cc23)ccn1 (stereo not drawn) [Compound 181],< 250 nM
4,Cc1cc(-c2n[nH]c3cc4[nH]c(=O)c(C(C)c5ccc(F)cc5)cc4cc23)ccn1 (stereo not drawn) [Compound 197],< 250 nM
5,Cc1cc(-c2n[nH]c3cc4[nH]c(=O)c([C@H](C)c5ccc(F)cc5)cc4cc23)ccn1 [Compound 288],< 250 nM

# The next lines start with the values.
row,IC50,Structure (SMILES)
1,< 250 nM,O=C1Nc2cc3[nH]nc(NC4CCOCC4)c3cc2CN1[C@@H]1CN(CC(F)(F)F)C[C@H]1c1ccccc1 [Compound 361]
2,250 to 1000 nM,Cc1cc(-c2n[nH]c3cc4c(cc23)CC([C@H](C)c2ccccc2)C(=O)N4)ccn1 (stereo partly drawn) [Compound 371]

# Test system: A375 cells
# Experiment: Tumor cell line proliferation assay (CellTiter Glo), A375
# Format: cell-based
# Conditions: Homo sapiens, A-375, 96 h, read-out: A375 (V599E) Cell Proliferation IC50
row,Structure (SMILES),IC50
1,Cc1cc(-c2n[nH]c3cc4[nH]c(=O)c(Cc5ccccc5)cc4cc23)ccn1 [Compound 6],250 to 1000 nM
2,Cc1cc(-c2n[nH]c3cc4[nH]c(=O)c(C(C)c5ccc(F)cc5)cc4cc23)ccn1 (stereo not drawn) [Compound 197],< 250 nM

# Same assay, conditions: Homo sapiens, A-375, 96 hours, read-out: A375 (V599E) Cell Proliferation IC50
row,Structure (SMILES),IC50
1,Cc1cc(-c2n[nH]c3cc4[nH]c(=O)c(C(C)c5cccc(Cl)c5)cc4cc23)ccn1 (stereo not drawn) [Compound 181],< 250 nM

# Test system: not given
# Experiment: not given
# Conditions: control or reference compounds, 5 μM; cited from earlier work
row,Structure (SMILES),plasma stability
1,CC(C)[N+](C)(CCOC(=O)C1c2ccccc2Oc2ccccc21)C(C)C [propantheline],intermediate plasma stability
2,CCCOc1cc(N)ccc1C(=O)OCCN(CC)CC [propoxycaine],low plasma stability

# Test system: not given
# Experiment: not given
# Conditions: PBS pH 7.4, 37° C., over the course of 24 hours; cited from earlier work
row,Structure (SMILES),chemical stability
1,O=C(O)CCCc1ccc(N(CCCl)CCCl)cc1 [chlorambucil],largely hydrolyzed

# Test system: H358 (Kras, G12C) cells
# Experiment: Tumor cell line proliferation assay (CellTiter Glo), H358
# Conditions: Homo sapiens, NCI-H358, 96 h, read-out: H358 (Kras, G12C) Cell Proliferation IC50 (nM)
# Description: (§1) The ability of one or more compounds of the invention to inhibit tumor cell line proliferation was determined according to standard procedures known in the art. For instance, an in vitro cellular proliferation assay was performed to measure the metabolic activity of live cells. […] The cells were incubated at 37° C. under 5% CO2 for two hours to allow for attachment to the plates. Compounds were first diluted in 1:3 dilutions in 100% DMSO at 250× the desired concentration, and then further diluted (1:50) in 10% DMEM growth medium. The diluted compounds were added to the cell plate (25 μL for a 5× dilution) and the cells are incubated with compounds (0.4% DMSO in 10% FBS DMEM) for 96 hours at 37° C. under 5% CO2. The cell control wells were added with vehicle only (0.4% DMSO in 10% FBS DMEM or in 10% FBS RPMI). Each concentration of the compounds was tested in duplicates. After 96 hours of the compound treatment, CellTiter Glo reagent (Promega) was added at a 1:5 dilution to each well of the cell plate and the cell plate was placed at room temperature for 30 minutes. The luminescence of the wells was determined using a Tecan plate reader.
row,Structure (SMILES),IC50
1,Cc1cc(-c2n[nH]c3cc4[nH]c(=O)c(C(C)c5cccc(Cl)c5)cc4cc23)ccn1 (stereo not drawn) [Compound 181],< 250 nM
2,Cc1cc(-c2n[nH]c3cc4[nH]c(=O)c(C(C)c5ccc(F)cc5)cc4cc23)ccn1 (stereo not drawn) [Compound 197],< 250 nM

# Test system: WM-266-4 cells
# Experiment: Tumor cell line proliferation assay (CellTiter Glo), WM-266-4
# Conditions: Homo sapiens, WM 266-4, 96 h, read-out: WM-266-4 (V599D) Cell Proliferation IC50 (nM)
# Description: as §1
row,Structure (SMILES),IC50
1,Cc1cc(-c2n[nH]c3cc4[nH]c(=O)c(Cc5ccccc5)cc4cc23)ccn1 [Compound 6],250 to 1000 nM
